According to patent publication US20040110821A1, “GAL3 receptor antagonists for the treatment of affective disorders” (priority 2002, published 2004):
Where two headings read alike, the source gives them in different places.

Biological target: T1, human GAL3 receptor (Homo sapiens, UniProt O60755)
T1 construct: expressed in transfected cells
T1 sequence (O60755 1-368): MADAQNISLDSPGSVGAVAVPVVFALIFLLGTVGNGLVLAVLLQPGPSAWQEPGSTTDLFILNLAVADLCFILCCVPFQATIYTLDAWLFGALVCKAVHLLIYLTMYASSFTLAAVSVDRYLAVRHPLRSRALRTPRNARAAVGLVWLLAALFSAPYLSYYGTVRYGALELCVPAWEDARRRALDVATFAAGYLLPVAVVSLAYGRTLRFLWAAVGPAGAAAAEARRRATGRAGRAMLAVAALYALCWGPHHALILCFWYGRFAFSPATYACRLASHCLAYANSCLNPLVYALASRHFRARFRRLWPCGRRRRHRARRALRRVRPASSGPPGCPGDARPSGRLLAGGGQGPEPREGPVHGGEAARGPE
Experiment: Radioligand binding at cloned human GAL3 receptor
Details: for Ki: read-out: hGAL3 Ki
Procedure: The present invention provides for a method of determining the binding affinity of a GAL3 antagonist, wherein the GAL3 antagonist is dissolved in a “suitable solvent”. A “suitable solvent” means one which permits the measurement of binding affinity of the GAL3 antagonist to the human GAL3 receptor at concentrations less than 1 μM, preferably less than 100 nM. Examples of solvents include, but are not limited to, DMSO, ethanol, N,N-dimethylacetamide, or water. For indolones, the preferred solvent is 3% DMSO (final concentration in the assay). For pyrimidines, the preferred solvent is 1% ethanol/0.09% polypuronic acid F-127 (final concentration in the assay). For any other type of compounds, the preferred solvent is the solvent which permits the measurement of binding affinity of a GAL3 antagonist at the lowest concentration. Once a suitable solvent is ascertained for the binding assay of the human GAL3 receptor, the same solvent is used in assays to determine the binding affinity for instance, at the GAL1 receptor.
The binding properties of the pyrimidines of the present invention were evaluated at the cloned human galanin receptors, GAL1, GAL2, and GAL3, using protocols described herein.
The binding properties of the indolones of the present invention were evaluated at the cloned human galanin receptors, GAL1, GAL2, and GAL3, using protocols described herein.
LM(tk-) cells were stably transfected with the human GAL1 or GAL3 receptor. CHO cells were stably transfected with the human GAL2 receptor.
cDNAs for the human and rat GAL1, and human and rat GAL3 receptors were transfected with a G-418 resistant gene into the mouse fibroblast LM(tk-) cell line by a calcium phosphate transfection method (Cullen, 1967). Stably transfected cells were selected with G-418. Human and rat GAL2 receptors were similarly transfected into CHO cells.
Membranes were harvested from stably transfected LM(tk-) cells. Adherent cells were washed twice in ice-cold phosphate buffered saline (138 mM NaCl, 8.1 mM Na2HPO4, 2.5 mM KCl, 1.2 mM KH2PO4, 0.9 mM CaCl2, 0.5 mM MgCl2, pH 7.4) and lysed by sonication in ice-cold sonication buffer (20 mM Tris-HCl, 5 mM EDTA, pH 7.7). Large particles and debris were cleared by low speed centrifugation (200×g, 5 min, 4° C.). Membranes were collected from the supernatant fraction by centrifugation (32,000×g, 18 min, 4° C.), washed with ice-cold hypotonic buffer, and collected again by centrifugation (32,000×g, 18 min, 4° C.). The final membrane pellet was resuspended by sonication into a small volume of ice-cold binding buffer (−1 ml for every 5 plates: 10 mM NaCl, 20 mM HEPES, 0.22 mM KH2PO4, 1.26 mM CaCl2, 0.81 mM MgSO4, pH 7.4). Protein concentration was measured by the Bradford method (Bradford, 1976) using Bio-Rad Reagent, with bovine serum albumin as a standard. Membranes were held on ice for up to one hour and used fresh, or flash frozen and stored in liquid nitrogen. Membranes were prepared similarly from CHO cells.
Galanin Receptors: Binding assays were performed according to the following published methods: human GAL3 (PCT International Publication No. WO 98/15570), human GAL1 (PCT International Publication No. WO 95/2260) human GAL2 (PCT International Publication No. WO 97/26853).
Binding data were analyzed using nonlinear regression and statistical techniques available in the GraphPAD Prism package (San Diego, Calif.). Enzymatic assay data were derived from a standard curve of reference compound data.

Row | SMILES | Ki (Table 7) [nM] | Ki (Table 9) [nM] | GAL3/GAL1 binding ratio (Ki GAL1 divided by Ki GAL3)
1 | O=C1C(=Nc2cccc(C(F)(F)F)c2)c2ccccc2N1c1ccccc1 [Example 92, 1-PHENYL-3-[[3-(TRIFLUOROMETHYL)PHENYL]IMINO]-1,3-DIHYDRO-2H-INDOL-2-ONE] | 38 | 38 | 
2 | Cc1ccc(Nc2cc(N3CCCCC3)nc(N3CCN(c4ncccc4C(F)(F)F)CC3)n2)cc1 [Example 34] |  |  | 39
